{"source": "patent US6958318B2", "about": "“Recombinant bacterial cells for delivery of PNP to tumor cells” (The UAB Research Foundation, priority 1993, dated 2005)", "key": {"E. coli PNP [1]": {"biological_target": "T1, E. coli PNP (Escherichia coli, UniProt P0ABP8)", "T1 sequence (P0ABP8 2-239)": "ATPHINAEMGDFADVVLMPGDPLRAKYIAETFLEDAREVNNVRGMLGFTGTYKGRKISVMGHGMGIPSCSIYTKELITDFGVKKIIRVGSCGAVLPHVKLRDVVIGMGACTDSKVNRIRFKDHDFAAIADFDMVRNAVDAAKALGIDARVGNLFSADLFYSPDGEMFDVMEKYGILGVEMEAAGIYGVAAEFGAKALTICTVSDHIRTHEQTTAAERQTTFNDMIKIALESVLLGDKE"}, "human PNP": {"biological_target": "T2, human PNP (Homo sapiens, UniProt P00491)", "T2 sequence (P00491 1-289)": "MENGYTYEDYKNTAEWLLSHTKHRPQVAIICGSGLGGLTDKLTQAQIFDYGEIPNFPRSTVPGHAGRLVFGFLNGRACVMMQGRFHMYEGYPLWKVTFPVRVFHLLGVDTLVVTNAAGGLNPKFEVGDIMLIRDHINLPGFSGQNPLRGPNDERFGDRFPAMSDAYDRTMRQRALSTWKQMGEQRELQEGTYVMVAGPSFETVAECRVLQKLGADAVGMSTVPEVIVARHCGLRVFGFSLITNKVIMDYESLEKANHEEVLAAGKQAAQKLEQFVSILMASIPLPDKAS", "test": "Cleavage of purine analog nucleosides by human PNP (HPLC)", "assay_type": "biochemical"}, "E. coli PNP [2]": {"biological_target": "T1, E. coli PNP", "assay_type": "biochemical"}, "[3]": {"system": "tumor cells transduced with the E. coli PNP", "test": "Killing of PNP-transduced tumor cells in vitro by other prodrugs", "assay_type": "cell-based", "from_the_text": "In addition to MeP-dR, two other prodrugs suitable for E. coli PNP activation in tumor cells can be applied to the methodology of the present invention. These prodrugs are F-araA and 2-F-2′deoxyadenosine. […] As desired, this dose had no effect on control untransduced, tumor cells."}, "[4]": {"system": "CF PAC (human pancreatic adenocarcinoma) cells", "test": "Intratumoral MeP in established human pancreatic tumors in SCID mice", "assay_type": "in vivo", "conditions": "once a day for three days", "experimental": "CF PAC (human pancreatic adenocarcinoma) cells were grown in T75 flasks, trypsinized, washed with PBS and then inoculated subcutaneously into female SCID mice at approximately 2×10^7 cells per animal. The tumors were allowed to grow for several days until they reached the size of approximately […]. At this point, groups of five animals were treated either with vehicle (PBS), PBS containing methyl purine (1.67 mg/kg) or PBS with a higher dose of methyl purine (5.0 mg/kg). Drug or vehicle was injected intratumorally with 3-4 needle passes. Animals were treated with either vehicle or drug one time each day for three days. The growth of the tumors was followed. Measurements in two dimension were used to approximate the overall tumor size. […] For example, purine analogs which are known to have strong cytotoxic activity such as 2-fluoroadenine, 2-fluoroadenosine, 9-[ribosyl]-6-methylpurine, 2-amino-6-chloro-1-deazapurine, 3-deazaguanine, 6-thioguanine, and 6-mercaptopurine can be directly administered to a tumor to cause regression and/or inhibit tumor growth."}, "[5]": {"system": "T-84 colon carcinoma cells", "test": "Toxicity of MeP and MeP-dR in untransfected T-84 cells", "assay_type": "cell-based, human", "experimental": "T-84 colon carcinoma cells were grown in Dulbecco's modified Eagle medium containing F12 nutrient medium (DMEM/F12) (GIBCO/BRL, Gaithersburg, Md.) in 6 well trays to a density of approximately […] (−20% confluency).\nUntransfected T-84 colon carcinoma cells were treated with increasing concentrations of either MeP-dR or MeP. After 5 days the cells were removed from each well and the number of dye excluding cells were determined with the aid of a hemacytometer. Cells were studied both at passage 48 (p. 48) and passage 61 (p. 61). MeP was obtained from Sigma Chemical Company (St. Louis, Mo.). MeP-dR was synthesized by standard methods as described (J. A. Montgomery and K. Howson, J. Med. Chem., 11:48-52 (1968)). The nucleoside and base were dissolved in serum free DMEM/F12 at a concentration of 1 mg/ml and added directly to 1 ml DMEM/F12 with 10% fetal bovine serum at the concentrations described below in order to cover 1-2×10^5 cells/well.\nInitial cytopathic effects due to MeP were observed within 24 hours (for example, rounding of cells, with some cells detaching from plate). Viable cells were counted 5 days following addition of drug. […] Trypan blue exclusion was used to confirm viability in cells retaining recognizable structure at all concentrations studied. […] If the toxicity of MeP-dR is due to very low levels of liberation of MeP by human PNP, then combination with selective inhibitors of human PNP could prevent this toxicity."}, "CEM cells": {"system": "CEM cells", "test": "Toxicity to nondividing CEM cells (1% serum)", "assay_type": "cell-based", "conditions": "10 μg/ml, non-proliferating cells in 1% serum", "experimental": "Results from experiments indicate that MeP is able to kill non-proliferating cells. This distinguishes MeP from most other antitumor agents. In the first experiment, CEM cells were cultured in 1% serum instead of the normal 10% serum for 48 hours. Under these conditions, the cells stop growing and the cell numbers stabilize at 1.5 to 2 times the original cell numbers. Cell growth continues when cells are returned to culture medium containing 10% serum."}, "Mel-1 cells": {"system": "Mel-1 cells", "test": "Wild type melanoma cell viability", "assay_type": "cell-based, human", "conditions": "concentrations as low as 0.5 μg/ml, five days"}, "[6]": {"test": "Stability under tissue culture conditions (HPLC of supernatants)", "conditions": "HPLC analysis of supernatants"}, "[7]": {"system": "Nc1nc(F)nc2c1ncn2[C@H]1C[C@H](O)[C@@H](CO)O1", "test": "purified protein, by the assay type"}, "[8]": {"system": "OC[C@H]1O[C@@H](n2cnc3c(O)ncnc32)[C@H](O)[C@@H]1O", "test": "purified protein, by the assay type", "conditions": "other: enzyme source: Bacteria"}}, "note": "Values joined by “and” are separate entries in the source; they are usually repeats but may differ in a detail not shown here. Equal values may be shown once. “Also recorded” adds a separate entry of the source."}
{"compound": "Nc1nc(F)nc2c1ncn2[C@@H]1O[C@H](CO)[C@@H](O)[C@@H]1O", "note": "[F-araA, 2-F-arabinofuranosyl-adenine]", "values": [{"measurement": "Km", "setting": "E. coli PNP [1]", "result": 510, "unit": "µM"}, {"measurement": "Percent of substrate cleaved by Human PNP, 100 μM", "setting": "human PNP", "result": "0(88) Percent and 0(86) Percent"}, {"measurement": "Percent of substrate cleaved by Human PNP, 1 mM", "setting": "human PNP", "result": "0(50) Percent and 0(47) Percent"}, {"measurement": "Substrate quality for mammalian (human) PNP", "setting": "human PNP", "result": "poor substrates; also recorded: not cleaved"}, {"measurement": "Percent of substrate cleaved by E. coli PNP, 100 μM", "setting": "E. coli PNP [2]", "result": "3(86) Percent and 5(86) Percent"}, {"measurement": "Substrate quality for bacterial (E. coli) PNP", "setting": "E. coli PNP [2]", "result": "moderate substrates; also recorded: poorly cleaved"}, {"measurement": "Killing of PNP-transduced tumor cells in vitro", "setting": "[3]", "result": "high level killing"}, {"measurement": "Killing of transduced versus untransduced tumor cells", "setting": "[3]; 500 ng/ml", "result": "specifically killed transduced, but not untransduced, tumor cells"}]}
{"compound": "Cc1ncnc2nc[nH]c12", "note": "[MeP, 6-methylpurine, reference compound]", "values": [{"measurement": "Tumor growth", "setting": "[4]; 1.67 mg/kg intratumorally", "result": "intermediate effect upon tumor growth"}, {"measurement": "Tumor growth", "setting": "[4]; 5.0 mg/kg intratumorally", "result": "completely arrested in terms of their growth"}, {"measurement": "Time to initial cytopathic effects", "setting": "[5]", "result": "≤ 24", "unit": "h"}, {"measurement": "Effect on cells", "setting": "[5]; MeP 3.75 μM-75 μM, by day 2", "result": "cell lysis and complete loss of cellular architecture"}, {"measurement": "Cell numbers relative to original number", "setting": "CEM cells", "result": "approximately 25%"}, {"measurement": "Lethality to Mel-1 cells", "setting": "Mel-1 cells", "result": "~100", "unit": "%"}, {"measurement": "Stability under tissue culture conditions", "setting": "[6]", "result": "stable"}]}
{"compound": "E. coli PNP (Escherichia coli K-12)", "values": [{"measurement": "Km", "setting": "[7]; other: enzyme source: Bacteria", "result": 44, "unit": "µM"}, {"measurement": "Km", "setting": "[7]; other: enzyme source: D54 cells (transduced)", "result": 38, "unit": "µM"}, {"measurement": "Km", "setting": "[8]", "result": 46, "unit": "µM"}]}
